Patent US20080132481A1, “INTERLEUKIN-4 GENE EXPRESSION INHIBITORS” (AVENTIS PHARMACEUTICALS INC., priority 2002, published 2008)
Where a name gives a salt, the structure may show the parent alone. Starred links: 1 amine or outer side, 2 acyl side, 3 side chain; linkers in the order of their positions; H or OH if unused. Positions of bridges follow the written chain, without caps; N, C: chain ends. Non-standard residues stand in square brackets, D forms with d. Residues, ends and D or L forms follow the SMILES beside them. Chains are numbered I, II in the order given. Actinocin(9to1) = Cc1c2oc3c(C)ccc(C(=O)[*:1])c3nc-2c(C(=O)[*:2])c(N)c1=O; NMeV = CN[C@H](C(=O)O)C(C)C; Sar = CNCC(=O)O

Legend:
IL-4 = assay: In vivo ovalbumin (OVA) mouse model, BALF IL-4; details: i.n.
Method: (§1) This model is designed to determine the ability of a test article to modulate an antigen-induced pulmonary inflammatory cell accumulation in sensitized Balb/c mice from Charles River Laboratories. The mice are given a two week time period from arrival date prior to sensitizations.
(§2) On days 0, 7, 14, each animal is injected intraperitoneal (i.p.) with a 0.2 ml Ovalbumin Hydragel solution. Each animal receives 10 μg of Ovalbumin in 0.2 mL of Hydragel, aluminum hydroxide adsorptive gel containing 2% aluminum oxide. On Day 21, the animals are dosed with test compounds 30-60 minutes prior to 5% Ovalbumin aerosolized challenge. On day 22, BALF samples are collected from one group of animals and used for cytokine analysis. On day 24, BALF is obtained from a second group of animals and used for differential cell counts.
(§3) Test System: Female Babl/cJ mice (Jackson Laboratories), approximately 6-9 weeks old, each weighing approximately 20 to 25 grams, are divided into ten animals per group.
(§4) Sensitization Regimen: Mice are sensitized by an intraperitoneal injection of 10 μg ovalbumin (OVA) mixed in 4 mg aluminum hydroxide Al(OH)3 gel suspension in 0.2 ml sterile saline on Days 0, 7 and 14. This suspension is prepared one hour before intraperitoneal injection into each mouse. The animals are ready for OVA challenge on Day 21.
(§5) Antigen Challenge: Animals are exposed to aerosolized OVA on day 21 (5% w/v in sterile saline) for 20 minutes. The aerosol is generated by a PARI-Master nebulizer, the outlet of which is connected to a small Plexiglas® chamber containing the animals. Bronchoalveolar lavage is performed on Day 22.
(§6) Method of Study Performance: On day 24, 72 hours following aerosol OVA exposure, a separate group of animals are anesthetized with urethane (0.15-0.2 gm/kg) and the trachea is exposed and cannulated. Lungs are lavaged with 2×0.5 ml Hank's balanced salt solution without Ca^2+ and Mg^2+ (HBSS; Gibco, Grand Island, N.Y.) containing 0.1% EDTA. Lavage fluid is recovered after 30 sec by gentle aspiration and pooled for each animal. Samples are centrifuged at 2000 rpm for 15 minutes at 5° C. After centrifugation, individual supernatants are stored frozen at −80° C. The resulting pellet is resuspended in 0.5 ml of HBSS containing 0.1% EDTA. Total cells and eosinophils are determined using a Technicon Hl and cytoslides, respectively.
Administration of the Test/Control Article: The test article and vehicle dosing preparations are administered once to each anesthetized mouse intranasally using a 200 μl pipette at 30-60 minutes prior to OVA challenge. Each animal receives 50 μl (25 μl/nostril) at each time point. Method of Euthanasia: Urethane overdose at in-life completion.
Statistical Analysis: Total cell and eosinophil number from various treatment groups is compared using an ANOVA followed by a multiple comparison test.
Compounds administered 30 minutes before aerosol ovalbumin challenge in ova sensitized mice. BALF harvested 24 hours after aerosol challenge. N=6/group.
FIG. 1 summarizes results from one representative experiment (out of three) in which in addition to BALF cytokines, lung eosinophilia is also determined. Mice (12 animals per group) are sensitized with 0.2 ml of an AlOH3 hydrogel suspension (2% AlOH3) containing 50 μg/ml ovalbumin on days 0, 7 and 14. […] After the OVA challenge for 24 hours, the mice underwent bronchoalveolar lavage and IL-4 and IL-13 levels in the BALF are determined by ELISA. […]

eosinophils = assay: In vivo ovalbumin (OVA) mouse model, BALF eosinophils; details: i.n., 30 mg/kg
Method: as §1, §2, §3, §4, §5
as §6, with “respectively. […]” for “respectively.”
FIG. 1 summarizes results from one representative experiment (out of three) in which in addition to BALF cytokines, lung eosinophilia is also determined. […] After the OVA challenge for 24 hours, the mice underwent bronchoalveolar lavage and IL-4 and IL-13 levels in the BALF are determined by ELISA. […]

Swiss 3T3 fibroblasts = assay: In vitro cytotoxicity assay on contact inhibited 3T3 fibroblasts (MTS); assay type: cell-based; details: non-dividing 3T3 cells
Method: Other toxicity assays may be used.
Any compound killing 3T3 fibroblast cells was omitted from further studies.
Contact inhibited Swiss 3T3 fibroblasts are purchased from ATCC.
All compound dilutions are assayed in triplicate. […] Cells are returned to the incubator for 2 days.
Media is added to blank wells for background calculations.
Note that starting concentration of CsA was 1 μM.

| melting point | SMILES | IL-4% ctl At 24 hours (IL-4; 30 mg/kg) [% ctl] | Eos % ctl At 72 hours (eosinophils) [% ctl] | also measured |
| --- | --- | --- | --- | --- |
| – | O=C(O)c1[nH]c2ccccc2c1Nc1ccncc1 [Example 28-EF, 3-(4-Pyridinylamino)-1H-indole-2-carboxylic acid] | 27 | 42 | – |
| 241 to 243 °C | CCOC(=O)c1[nH]c2cc(-c3ccccc3)ccc2c1Nc1ccncc1 [Example 18, 6-phenyl-3-(4-pyridinylamino)-1H-indole-2-carboxylic acid, ethyl ester] | – | – | – |
| – | O=C(O)c1[nH]c2ccccc2c1Nc1ccncc1 [28 (maleate salt), 3-(4-Pyridinylamino)-1H-indole-2-carboxylic acid] | – | – | IL-4% ctl At 24 hours (IL-4; 12 mg/kg): 50 % ctl |
| 258 to 261 °C (dec.) | CCOC(=O)c1[nH]c2cc(Cl)ccc2c1Nc1ccncc1 [Example 13, 6-chloro-3-(4-pyridinylamino)-1H-indole-2-carboxylic acid, ethyl ester] | – | – | – |
| – | O=C(O)c1[nH]c2ccccc2c1Nc1ccncc1 [Example 28-ZD, 3-(4-Pyridinylamino)-1H-indole-2-carboxylic acid] | 49.6 | 37.4 | – |
| – | CCOC(=O)c1c(Nc2ccncc2)c2ccccc2n1C [Example 24A (maleate salt), 1-Methyl-3-(4-pyridinylamino)-1H-indole-2-carboxylic ethyl ester] | 3 | 8 | – |
| 248 to 250 °C | CCOC(=O)c1[nH]c2ccccc2c1Nc1ccncc1 [Example 11, 3-(4-pyridinylamino)-1H-indole-2-carboxylic acid, ethyl ester] | – | – | – |
| – | Cc1c2oc3c(C)ccc(C(=O)N[C@@H]4C(=O)N[C@H](C(C)C)C(=O)N5CCC[C@H]5C(=O)N(C)CC(=O)N(C)[C@@H](C(C)C)C(=O)O[C@@H]4C)c3nc-2c(C(=O)N[C@@H]2C(=O)N[C@H](C(C)C)C(=O)N3CCC[C@H]3C(=O)N(C)CC(=O)N(C)[C@@H](C(C)C)C(=O)O[C@@H]2C)c(N)c1=O [Actinomycin D, reference compound] (I: T[dV]P[Sar][NMeV] / II: T[dV]P[Sar][NMeV]; ester I:1-I:C, II:1-II:C; linker I:N-II:N via Actinocin(9to1)) | – | – | toxic effects on quiescent 3T3 cells (in words) (Swiss 3T3 fibroblasts): the only compound which effected the viability |
| – | CCOC(=O)c1[nH]c2cc(Cl)cc(Cl)c2c1NS(=O)(=O)c1ccccc1 [Example 90, 3-((Phenylsulfonyl)amino)-4,6-dichloro-1H-indole-2-carboxylic acid ethyl ester] | 37 | 71 | – |
